# Measurements published in patent US8211907B2, “Fused indane compound” (priority 2007, dated 2012).
# Counter-ions that a name gives are not always drawn. Like-named read-outs stand apart in the source and are kept apart here.
# Legend:
# [1] = molecular target: NMDA receptor; assay: [3H] MK-801 binding test on rat brain membrane specimen
# [2] = molecular target: NMDA receptor
# [3] = system: T1, NMDA receptor; assay: Intracellular calcium concentration determination by FLIPR in rat first-generation neurocytes (NMDA/glycine stimulation); format: cell-based; conditions: rat first-generation neurocytes (DIV7-9), NMDA/glycine-induced calcium rise, 10 μM MK-801 = 100% inhibition
# T1 construct: IC50
# Protocol: 1) Preparation of Rat First-Generation Neurocytes
# Anesthetized with ether, Wistar rats (Nippon SLC) at the 19th day of pregnancy were let die from blood loss by breast incision. The abdomen was cut open, and the womb was extracted, and the fetus was removed. The whole brain was removed, the hemicerebrum was then isolated in Neurobasal medium (Glu, Asp-free; Gibco), and the meninx was removed. The hemicerebrum was recovered by centrifugation, and suspended in a cell-dispersing solution (0.36 mg/ml papain, 150 U/ml DNase 1, 0.02% L-cysteine monohydrochloride monohydrate, 0.02% bovine serum albumin, 0.5% glucose, Ca^2+, Mg^2+-free PBS), and treated at 37° C. for 15 minutes. This was centrifuged at 400 g for 5 minutes, and the supernatant was removed by suction. This was suspended in a neurocyte culture medium (Sumitomo Bakelite), and the cell masses were removed using a filter. The number of the living cells was counted, and 100,000 cells/well were incubated on a 96-well plate (Biocoat PDL96W black/clear (Nippon Becton Dickinson)) (37° C., 5% CO2).
# 2) Intracellular Calcium Concentration Determination by FLIPR (Fluorometric Imaging Plate Reader)
# The culture medium of rat first-generation neurocytes (DIV7-9) was removed by suction, and the cells were washed once with a 100 μl assay buffer (Hank's Balanced Salt Solution (Ca^2+, Mg^2+-free), 20 mM Hepes-NaOH (pH 7.4), 1 mM CaCl2). 100 μl of the assay buffer containing Fluo3 (Dojin Chemical) was added thereto, and incubated for 1 hour (37° C., 5% CO2). The cells were washed three times with 100 μl of the assay buffer, and then a compound solution dissolved in 1 μl of dimethylsulfoxide, and 100 μl of the assay buffer containing 2.5 μM (final concentration) tetrodotoxin were added thereto and incubated for 30 minutes (37° C., 5% CO2). The fluorescent intensity was measured at intervals of two seconds, and ten seconds after the measurement start, 50 μl of a ligand solution (Hank's Balanced Salt Solution (Ca^2+, Mg^2+-free), 20 mM Hepes-NaOH (pH 7.4), 1 mM CaCl2, 9 μM NMDA, 30 μM glycine) containing the compound solution dissolved in 0.5 μl of dimethylsulfoxide was added thereto, and the fluorescent intensity was measured for 120 seconds from the start of the measurement. The data measured for total of 120 seconds (60 times in total) were averaged.
# [4] = system: male ddy mouse; assay: MES (maximal electroshock seizure) inhibitory action; format: in vivo; conditions: for ED50: oral administration, electroshock 30 minutes later
# Protocol: A test compound was orally administered to a male ddy mouse, an inhibitory action on the seizures caused by an electroshock applied at 30 minutes later (Interval 10 ms, Duration 0.9 ms, Amplitude 50 mA, Gate 0.2 s) was evaluated, and an NMDA receptor inhibitory action in vivo was measured (Palmer G C, Harris E W, Ray R, Stagnitto M L, Schmiesing R J. Arch Int Pharmacodyn Ther. 1992 May-June; 317: 16-34).
# [5] = Mus musculus, po, 0.5 h, read-out: ED50
SMILES,Ki [1],Ki [2],"ED50 [4, 5]",further results
COc1ccc2c(c1)[C@H]1N(C)CCC[C@@]1(C)C2 [Example 56],1.5 µM,,,
"c1ccc([C@@H]2c3ccccc3[C@@H]3NCCC[C@H]23)cc1 (racemic) [Compound C, reference compound]",,20 µM,,
"C[C@]12CCCN[C@@]1(C)c1ccccc1C2 (single isomer, unassigned) [Example 84-1, (4aR*,9bR*)-4a,9b-dimethyl-2,3,4,4a,5,9b-hexahydro-1H-indeno[1,2-b]pyridine hydrochloride]",,,,"IC50 ([3]; hydrochloride, read-out: IC50): 1.8 µM; ED50 ([4]; hydrochloride): 4.2 mg/kg, po; Ki ([1]; hydrochloride): 0.5 µM"
Cc1cc2c(s1)C[C@]1(C)CCCN[C@H]21 [Example 15],,8.5 µM,38 mg/kg,
"CN1CCC[C@]2(C)Cc3ccccc3[C@H]12 (racemic) [Example 42, (4aRS,9bRS)-1,4a-dimethyl-2,3,4,4a,5,9b-hexahydro-1H-indeno[1,2-b]pyridine methanesulfonate]",,1.3 µM,31 mg/kg,
"C[C@@]12CCCN[C@@H]1c1ccccc1S2 (racemic) [Example 13, (4aRS,9bRS)-4a-methyl-1,2,3,4,4a,9b-hexahydro[1]benzothieno[3,2-b]pyridine hydrochloride]",2 µM,,14 mg/kg,
"C[C@]12CCCN[C@H]1c1ccccc1C2 [Example 81, (4aR,9bR)-4a-methyl-2,3,4,4a,5,9b-hexahydro-1H-indeno[1,2-b]pyridine hydrochloride]",2 µM,,9.1 mg/kg,IC50 ([3]; read-out: IC50): 21 µM
CC(C)[C@]12CCCN[C@@H]1c1ccccc1C2 [Example 32],,6.8 µM,26 mg/kg,
"CC[C@]12CCCN[C@H]1c1ccccc1C2 (racemic) [Example 1, (4aRS,9bRS)-4a-ethyl-2,3,4,4a,5,9b-hexahydro-1H-indeno[1,2-b]pyridine hydrochloride]",0.9 µM,,6.8 mg/kg,IC50 ([3]; read-out: IC50): 5.1 µM
c1ccc([C@]23CCCN[C@H]2c2ccccc2C3)cc1 [Example 3],1.2 µM,,39 mg/kg,IC50 [3]: 6.8 µM
"C[C@]12CCCCN[C@@H]1c1ccccc1C2 (racemic) [Example 38-2, (5aRS,10bSR)-5a-methyl-1,2,3,4,5,5a,6,10b-octahydroindeno[1,2-b]azepine hydrochloride]",6.3 µM,,,
"C[C@]12CCCCN[C@H]1c1ccccc1C2 (racemic) [Example 38-1, (5aRS,10bRS)-5a-methyl-1,2,3,4,5,5a,6,10b-octahydroindeno[1,2-b]azepine hydrochloride]",0.5 µM,,,
"C[C@]12CCCN[C@@]1(C)c1ccccc1C2 (single isomer, unassigned) [Example 84-2, (4aR*,9bR*)-4a,9b-dimethyl-2,3,4,4a,5,9b-hexahydro-1H-indeno[1,2-b]pyridine hydrochloride]",,,,"IC50 ([3]; hydrochloride, read-out: IC50): 6.1 µM; ED50 ([4]; hydrochloride): 28 mg/kg, po; Ki ([1]; hydrochloride): 1.1 µM"
"c1ccc2c(c1)C[C@H]1CCCN[C@@H]21 (racemic) [Compound A, (4aRS,9bRS)-2,3,4,4a,5,9b-hexahydro-1H-indeno[1,2-b]pyridine, reference compound]",,38 µM,> 80 mg/kg,"anti-seizure action ([4]; at 80 mg/kg, oral): did not exhibit an anti-seizure action"
"CC[C@]12CCCN[C@H]1c1cc(COC)ccc1C2 (racemic) [Example 73, (4aRS,9bRS)-4a-ethyl-8-(methoxymethyl)-2,3,4,4a,5,9b-hexahydro-1H-indeno[1,2-b]pyridine hydrochloride]",7.1 µM,,,
"C[C@]12CCCN[C@@]1(C)c1ccccc1C2 (racemic) [Example 63, (4aRS,9bRS)-4a,9b-dimethyl-2,3,4,4a,5,9b-hexahydro-1H-indeno[1,2-b]pyridine hydrochloride]",0.8 µM,,5.8 mg/kg,IC50 ([3]; read-out: IC50): 3 µM
"c1ccc([C@@H]2c3ccccc3[C@@H]3NCCC[C@H]23)cc1 (racemic) [Compound B, (4aRS,5RS,9bRS)-5-phenyl-2,3,4,4a,5,9b-hexahydro-1H-indeno[1,2-b]pyridine, reference compound]",,23 µM,,
"CC[C@]12CCCN[C@H]1c1ccccc1C2 (single isomer, unassigned) [Example 83-1, (4aR*,9bR*)-4a-ethyl-2,3,4,4a,5,9b-hexahydro-1H-indeno[1,2-b]pyridine hydrochloride]",,,6.2 mg/kg,"IC50 ([3]; hydrochloride, read-out: IC50): 3.1 µM; Ki ([1]; hydrochloride): 0.6 µM"
CCOC[C@]12CCCN[C@@]1(C)c1ccccc1C2 [Example 69],1.3 µM,,,
"CC[C@]12CCCN[C@H]1c1ccccc1C2 (single isomer, unassigned) [Example 83-2, (4aR*,9bR*)-4a-ethyl-2,3,4,4a,5,9b-hexahydro-1H-indeno[1,2-b]pyridine hydrochloride]",,,,"IC50 ([3]; hydrochloride, read-out: IC50): 12 µM; Ki ([1]; hydrochloride): 2.7 µM"
"C[C@@]12CCCN[C@@H]1c1ccccc1C2 [Example 82, (4aS,9bS)-4-a-methyl-2,3,4,4a,5,9b-hexahydro-1H-indeno[1,2-b]pyridine hydrochloride]",,6.7 µM,19 mg/kg,IC50 ([3]; read-out: IC50): 94 µM
CC[C@]12CCCN[C@H]1c1cc(CO)ccc1C2 [Example 77],4 µM,,,
"C[C@]12CCCN[C@H]1c1ccccc1C2 (racemic) [Example 22, (4aRS,9bRS)-4a-methyl-2,3,4,4a,5,9b-hexahydro-1H-indeno[1,2-b]pyridine hydrochloride]",5.1 µM,,11 mg/kg,IC50 ([3]; read-out: IC50): 34 µM
C[C@@]12CCCN[C@@H]1c1ccccc1CC2 [Example 17],,2 µM,4.2 mg/kg,
COC[C@]12CCCN[C@@]1(C)c1ccccc1C2 [Example 68],,0.6 µM,26 mg/kg,
